Source: EP4685153A1 (priority 2023, dated 2024)
pIC50: −log10 of the molar value. Residues, ends and D or L forms follow the SMILES beside them. *: point of attachment. Succinyl(4-O-cholesteryl) = CC(C)CCC[C@@H](C)[C@H]1CC[C@H]2[C@@H]3CC=C4C[C@@H](OC(=O)CCC(=O)*)CC[C@]4(C)[C@H]3CC[C@]12C

What was measured:
[1] = tested on: T20-resistant mutant strains (HIV-1 strain NL4-3); conditions: T20-resistant mutant strains ( strain NL4-3, 48 h)
[2] = tested on: HIV-1 strain JRFL pseudovirus; conditions: for pIC50: strain JRFL pseudovirus
N44 = N44 (Human immunodeficiency virus type 1 group M subtype B, UniProt P04578); assay: Circular dichroism of lipopeptide complex with target sequence N44; conditions: CD; for Tm value of the mixture with N44: [θ]222, 20-98 °C at 2 °C/min; for α-helix content of the mixture with N44: lipopeptide and N44 each 10 µM in PBS pH 7.2
Sequence of N44 (P04578 538-581): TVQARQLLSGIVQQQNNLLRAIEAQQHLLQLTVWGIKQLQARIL

[3] = tested on: HIV-1 strain NL4-3 pseudovirus; conditions: for pIC50: strain NL4-3 pseudovirus
[4] = tested on: HIV-1 strain SG3.1 living virus; conditions: for pIC50: strain SG3.1 living virus
[5] = Circular dichroism of lipopeptide alone; format: physicochemical; conditions: CD, 10 µM in PBS pH 7.2
[6] = LP-124 versus LP-122, LP-125 versus LP-123

| SMILES | pIC50 [1] | pIC50 [2] | Tm value of the mixture with N44 (N44) [°C] | α-helix content of the mixture with N44 (N44) [%] | pIC50 [3] | pIC50 [4] | α-helix content, lipopeptide alone [5] [%] | activity increased as compared to its template, JRFL pseudovirus [2, 6] [folds] | activity increased as compared to its template, NL4-3 pseudovirus [3, 6] | activity increased as compared to its template, SG3.1 living virus [4, 6] [folds] |
| --- | --- | --- | --- | --- | --- | --- | --- | --- | --- | --- |
| CC[C@H](C)[C@H](NC(=O)[C@H](CCCCN)NC(=O)[C@H](CCC(N)=O)NC(=O)[C@H](CCC(=O)O)NC(=O)[C@H](Cc1ccc(O)cc1)NC(C)=O)C(=O)N[C@@H](CCC(=O)O)C(=O)N[C@@H](CCC(=O)O)C(=O)N[C@@H](CC(C)C)C(=O)N[C@@H](CC(C)C)C(=O)N[C@@H](CCCCN)C(=O)N[C@@H](CCCCN)C(=O)N[C@@H](C)C(=O)N[C@@H](CCC(=O)O)C(=O)N[C@@H](CCC(=O)O)C(=O)N[C@@H](CCC(N)=O)C(=O)N[C@@H](CCC(N)=O)C(=O)N[C@@H](CCCCN)C(=O)N[C@@H](CCCCN)C(=O)N[C@@H](CC(N)=O)C(=O)N[C@@H](CCC(=O)O)C(=O)N[C@@H](CCC(=O)O)C(=O)N[C@@H](CC(C)C)C(=O)N[C@@H](CCCCN)C(=O)N[C@@H](CCCCN)C(=O)N[C@@H](CC(C)C)C(=O)N[C@@H](CCC(=O)O)C(=O)N[C@@H](CCCCNC(=O)CCC(=O)O[C@H]1CC[C@@]2(C)C(=CC[C@H]3[C@@H]4CC[C@H]([C@H](C)CCCC(C)C)[C@@]4(C)CC[C@@H]32)C1)C(N)=O [LP-98, reference compound] (Ac-YEQKIEELLKKAEEQQKKNEELKKLEK(Succinyl(4-O-cholesteryl))-NH2) | 8.57 |  |  |  |  |  |  |  |  |  |
| CC[C@H](C)[C@H](NC(=O)[C@H](CCCCN)NC(=O)[C@H](CCCCN)NC(=O)[C@H](CCC(=O)O)NC(=O)[C@H](Cc1c[nH]c2ccccc12)NC(=O)[C@H](CCC(=O)O)NC(=O)[C@H](CCC(=O)O)NC(=O)[C@H](Cc1c[nH]c2ccccc12)NC(=O)[C@@H](NC(=O)[C@H](CCSC)NC(=O)[C@H](CCC(=O)O)NC(C)=O)[C@@H](C)O)C(=O)N[C@@H](CCC(=O)O)C(=O)N[C@@H](CCC(=O)O)C(=O)N[C@@H](CC(C)C)C(=O)N[C@@H](CCC(=O)O)C(=O)N[C@@H](CCCCN)C(=O)N[C@@H](CCCCN)C(=O)N[C@H](C(=O)N[C@@H](CCC(=O)O)C(=O)N[C@@H](CCC(=O)O)C(=O)N[C@@H](CC(C)C)C(=O)N[C@@H](CC(C)C)C(=O)N[C@@H](CCCCN)C(=O)N[C@@H](CCCCN)C(=O)N[C@@H](C)C(=O)N[C@@H](CCC(=O)O)C(=O)N[C@@H](CCC(=O)O)C(=O)N[C@@H](CCC(N)=O)C(=O)N[C@@H](CCC(N)=O)C(=O)N[C@@H](CCCCN)C(=O)N[C@@H](CCCCN)C(=O)N[C@@H](CC(N)=O)C(=O)N[C@@H](CCC(=O)O)C(=O)N[C@@H](C)C(=O)N[C@@H](C)C(=O)N[C@@H](C)C(=O)N[C@@H](CCCCN)C(=O)N[C@@H](CCCCNC(=O)CCC(=O)O[C@H]1CC[C@@]2(C)C(=CC[C@H]3[C@@H]4CC[C@H]([C@H](C)CCCC(C)C)[C@@]4(C)CC[C@@H]32)C1)C(N)=O)[C@@H](C)CC [LP-121] (Ac-EMTWEEWEKKIEELEKKIEELLKKAEEQQKKNEAAAKK(Succinyl(4-O-cholesteryl))-NH2) |  | 10.37 | > 98 | 81 | 10.28 | 11.01 | 69 |  |  |  |
| CC[C@H](C)[C@H](NC(=O)[C@H](CCCCN)NC(=O)[C@H](CCCCN)NC(=O)[C@H](CCC(=O)O)NC(=O)[C@H](Cc1c[nH]c2ccccc12)NC(=O)[C@H](CCC(=O)O)NC(=O)[C@H](CCC(=O)O)NC(=O)[C@H](Cc1c[nH]c2ccccc12)NC(=O)[C@@H](NC(C)=O)[C@@H](C)O)C(=O)N[C@@H](CCC(=O)O)C(=O)N[C@@H](CCC(=O)O)C(=O)N[C@@H](CC(C)C)C(=O)N[C@@H](CCC(=O)O)C(=O)N[C@@H](CCCCN)C(=O)N[C@@H](CCCCN)C(=O)N[C@H](C(=O)N[C@@H](CCC(=O)O)C(=O)N[C@@H](CCC(=O)O)C(=O)N[C@@H](CC(C)C)C(=O)N[C@@H](CC(C)C)C(=O)N[C@@H](CCCCN)C(=O)N[C@@H](CCCCN)C(=O)N[C@@H](C)C(=O)N[C@@H](CCC(=O)O)C(=O)N[C@@H](CCC(=O)O)C(=O)N[C@@H](CCC(N)=O)C(=O)N[C@@H](CCC(N)=O)C(=O)N[C@@H](CCCCN)C(=O)N[C@@H](CCCCN)C(=O)N[C@@H](CC(N)=O)C(=O)N[C@@H](CCC(=O)O)C(=O)N[C@@H](CCC(N)=O)C(=O)N[C@@H](CCC(=O)O)C(=O)N[C@@H](C)C(=O)N[C@@H](C)C(=O)N[C@@H](C)C(=O)N[C@@H](CCCCN)C(=O)N[C@@H](CCCCNC(=O)CCC(=O)O[C@H]1CC[C@@]2(C)C(=CC[C@H]3[C@@H]4CC[C@H]([C@H](C)CCCC(C)C)[C@@]4(C)CC[C@@H]32)C1)C(N)=O)[C@@H](C)CC [LP-122] (Ac-TWEEWEKKIEELEKKIEELLKKAEEQQKKNEQEAAAKK(Succinyl(4-O-cholesteryl))-NH2) |  | 10.38 | > 98 | 81 | 10.65 | 11.04 | 65 |  |  |  |
| CC[C@H](C)[C@H](NC(=O)[C@H](CCCCN)NC(=O)[C@H](CCCCN)NC(=O)[C@H](CCC(=O)O)NC(=O)[C@H](Cc1ccc(O)cc1)NC(=O)[C@H](CCC(=O)O)NC(=O)[C@H](CCC(=O)O)NC(=O)[C@H](Cc1ccc(O)cc1)NC(=O)[C@@H](NC(C)=O)[C@@H](C)O)C(=O)N[C@@H](CCC(=O)O)C(=O)N[C@@H](CCC(=O)O)C(=O)N[C@@H](CC(C)C)C(=O)N[C@@H](CCC(=O)O)C(=O)N[C@@H](CCCCN)C(=O)N[C@@H](CCCCN)C(=O)N[C@H](C(=O)N[C@@H](CCC(=O)O)C(=O)N[C@@H](CCC(=O)O)C(=O)N[C@@H](CC(C)C)C(=O)N[C@@H](CC(C)C)C(=O)N[C@@H](CCCCN)C(=O)N[C@@H](CCCCN)C(=O)N[C@@H](C)C(=O)N[C@@H](CCC(=O)O)C(=O)N[C@@H](CCC(=O)O)C(=O)N[C@@H](CCC(N)=O)C(=O)N[C@@H](CCC(N)=O)C(=O)N[C@@H](CCCCN)C(=O)N[C@@H](CCCCN)C(=O)N[C@@H](CC(N)=O)C(=O)N[C@@H](CCC(=O)O)C(=O)N[C@@H](CCC(N)=O)C(=O)N[C@@H](CCC(=O)O)C(=O)N[C@@H](C)C(=O)N[C@@H](C)C(=O)N[C@@H](C)C(=O)N[C@@H](CCCCN)C(=O)N[C@@H](CCCCNC(=O)CCC(=O)O[C@H]1CC[C@@]2(C)C(=CC[C@H]3[C@@H]4CC[C@H]([C@H](C)CCCC(C)C)[C@@]4(C)CC[C@@H]32)C1)C(N)=O)[C@@H](C)CC [LP-124] (Ac-TYEEYEKKIEELEKKIEELLKKAEEQQKKNEQEAAAKK(Succinyl(4-O-cholesteryl))-NH2) |  | 11.23 | 86 | 79 | 11.68 | 11.97 | 64 | ~7 | about 11 folds | ~9 |
| CC[C@H](C)[C@H](NC(=O)[C@H](CCCCN)NC(=O)[C@H](CCCCN)NC(=O)[C@H](CCC(=O)O)NC(=O)[C@H](Cc1ccc(O)cc1)NC(=O)[C@H](CCC(=O)O)NC(=O)[C@H](CCC(=O)O)NC(=O)[C@H](Cc1ccc(O)cc1)NC(=O)[C@H](CCC(=O)O)NC(C)=O)C(=O)N[C@@H](CCC(=O)O)C(=O)N[C@@H](CCC(=O)O)C(=O)N[C@@H](CC(C)C)C(=O)N[C@@H](CCC(=O)O)C(=O)N[C@@H](CCCCN)C(=O)N[C@@H](CCCCN)C(=O)N[C@H](C(=O)N[C@@H](CCC(=O)O)C(=O)N[C@@H](CCC(=O)O)C(=O)N[C@@H](CC(C)C)C(=O)N[C@@H](CC(C)C)C(=O)N[C@@H](CCCCN)C(=O)N[C@@H](CCCCN)C(=O)N[C@@H](C)C(=O)N[C@@H](CCC(=O)O)C(=O)N[C@@H](CCC(=O)O)C(=O)N[C@@H](CCC(N)=O)C(=O)N[C@@H](CCC(N)=O)C(=O)N[C@@H](CCCCN)C(=O)N[C@@H](CCCCN)C(=O)N[C@@H](CC(N)=O)C(=O)N[C@@H](CCC(=O)O)C(=O)N[C@@H](C)C(=O)N[C@@H](C)C(=O)N[C@@H](C)C(=O)N[C@@H](CCCCN)C(=O)N[C@@H](CCCCNC(=O)CCC(=O)O[C@H]1CC[C@@]2(C)C(=CC[C@H]3[C@@H]4CC[C@H]([C@H](C)CCCC(C)C)[C@@]4(C)CC[C@@H]32)C1)C(N)=O)[C@@H](C)CC [LP-126] (Ac-EYEEYEKKIEELEKKIEELLKKAEEQQKKNEAAAKK(Succinyl(4-O-cholesteryl))-NH2) |  | 11.22 | 92 | 66 | 11.41 | 11.78 | 51 |  |  |  |
